In PMC9779727, “Identification of Novel Artemisinin Hybrids Induce Apoptosis and Ferroptosis in MCF-7 Cells” (International Journal of Molecular Sciences, 2022):

Key:
[1] = tested on: breast cancer MDA-MB-231 cells; assay: MTT antiproliferation assay, MDA-MB-231; assay type: cell-based, human; conditions: 48 h, means ± SD, n = 3
Source text: (§1) The target hybrids A1–A15 were screened for their antiproliferation activities against five human cancer cell lines (lung cancer A549 cells, breast cancer MCF-7 and MDA-MB-231 cells, colon cancer HCT116 cells and ovarian cancer SK-OV-3 cells) in vitro by the standard MTT method, and 5-fluorouracil (5-FU) and ART were coassayed as controls. […] Therefore, the most promising hybrid, A8, was chosen for further exploration of the preliminary mechanism of MCF-7 cell antiproliferation.
(§2) Cytotoxicity of test compounds against five different tumor cell lines were evaluated using an MTT assay in vitro. Cells were seeded into 96-well plates at a density of 5 × 10^4 cells per well and stabilized at 37 °C with 5% CO2 for 24 h. Compounds A1–A15, ART and 5-FU were added to each well at various concentrations and then the cells were incubated for 48 h. The MTT solution (100 μL 0.5 mg/mL^−1) was added to each well, and the cells were incubated for another 4 h. Then, 150 μL DMSO was added to each well and the absorbance of samples was measured at 492 nm. The IC50 values were calculated according to Logit method after getting the inhibitory rate.

MCF-7 cells [2] = assay: Cell colony formation assay; assay type: cell-based, human; conditions: 12 d
Procedure: We chose a cell colony formation assay to determine the antiproliferative effect of the compound more intuitively.
MCF-7 cells were seeded into 6-well plates at 37 °C with 5% CO2 for 24 h and then treated with compound A8 at various concentrations (0, 2.5, 5 and 10 μM), ART (10 μM) and 5-FU (10 μM) for 12 d. Then, cells were stained with Giemsa and clones number were counted directly with naked eyes.

CYP2C19 = target: T1, CYP2C19 (Homo sapiens, UniProt P33261); assay: CYPs inhibition assay, CYP2C19; assay type: in vitro ADME; conditions: human liver microsomes
T1 construct: from tissue; host or cells: human liver microsomes
Procedure: Finally, we evaluated the interaction between the hybrid A8 and five major metabolic enzymes (CYP1A2, CYP2C9, CYP2C19, CYP2D6 and CYP3A4) in the human body. […] It is also one of the directions for our further transformation and optimization.
Cytochrome P450 inhibition was evaluated in human liver microsomes (0.253 mg/mL) using five […] (CYP1A2, α-Naphthoflavone; CYP2C9, Sulfaphenazole; CYP2C19, Benzylnirvanol; CYP2D6, Quinidine; and CYP3A4, Ketoconazole.) in the presence of compound A8 (10 μM). After preincubation for 10 min at 37 °C, an NADPH-regenerating system was added. After the mixed system was incubated for 15 min at 37 °C, the reaction was stopped by adding 400 μL of cold stop solution (200 ng/mL tolbutamide and 200 ng/mL labetalol in acetonitrile). Then, the mixture was centrifuged, and the supernatant was analyzed by LC-MS/MS.

GPX4 = assay: Western blotting, GPX4 expression; assay type: cell-based, human; conditions: MCF-7, 0, 2.5, 5 and 10 μM, 48 h
Procedure: We examined the effect of A8 on the expression of GPX4 as well, which is vital in preventing ferroptosis. […] Thus, we concluded that A8 induced the accumulation of ROS and lipid peroxidation and suppressed GSH levels and the expression of GPX4, thereby leading to the induction of ferroptosis.
MCF-7 cells were seeded at a density of 4 × 10^5 cells per well and treated with various concentrations of compound A8 (0, 2.5, 5 and 10 μM) for 48 h. After this, cells were collected and washed twice with ice-cold DPBS. The pellets were resuspended in a total protein extraction buffer (20 mM HEPES, 350 mM NaCl, 20% glycerol, 1% NP-40, 1 mM MgCl2, 0.5 mM EDTA, 0.1 mM EGTA, 0.1 mM DTT, 0.1 mM PMSF) containing a protease inhibitor cocktail and incubated on ice for 30 min with intermittent mixing. The protein concentration was measured using the Bradford reagent (Bio-Rad Laboratories Inc., Hercules, CA, USA). An equal amount (20 μg) of protein was loaded on 10% polyacrylamide gels and transferred to a nitrocellulose membrane. After blocking with 5% skimmed milk, the membrane was incubated at 4 °C overnight with specific primary antibodies. The membrane was washed and incubated at room temperature for 1 h with secondary antibodies conjugated with horseradish peroxidase (HRP). Finally, the immunoblot was developed for visualization using a chemiluminescence kit. […]

[3] = tested on: ovarian cancer SK-OV-3 cells; assay: MTT antiproliferation assay, SK-OV-3; assay type: cell-based, human; conditions: 48 h, means ± SD, n = 3
Source text: as §1, §2

MCF-7 cells [4] = assay: Lipid peroxidation (MDA) detection; assay type: cell-based, human; conditions: MCF-7
Source text: We also determined the effect of A8 on the expression of GSH and MDA (lipid peroxidation).
Lipid peroxidation assay kit (Beyotime, Shanghai, China) was used to detect malonaldehyde (MDA), together with GSH level assay, present in samples, as per the manufacturer’s instruction with slight modifications.

[5] = tested on: colon cancer HCT116 cells; assay: MTT antiproliferation assay, HCT116; assay type: cell-based, human; conditions: 48 h, means ± SD, n = 3
Source text: as §1, §2

MCF-7 cells [6] = assay: Intracellular ROS generation (DCFH-DA, flow cytometry); assay type: cell-based, human; conditions: MCF-7, 0, 2.5, 5 and 10 μM, 48 h
Procedure: First, we detected ROS levels using DFCH-DA.
ROS production was detected by using the peroxide-sensitive fluorescent probe DCFH-DA. After treatment with different concentrations of A8 for 48 h, the cells were incubated with 10 μg/mL DCFH-DA at 37 °C for 20 min. Then, cells were harvested. Samples were analyzed by flow cytometry (FACS Calibur, Becton-Dickinson, East Rutherford, NJ, USA).

MCF-7 cells [7] = assay: Annexin V-FITC/PI apoptosis assay (flow cytometry); assay type: cell-based, human; conditions: 48 h
Procedure: To investigate whether hybrid A8 exerts an antitumor effect on MCF-7 cells by inducing apoptosis, an annexin V-FITC/PI binding assay was performed. MCF-7 cells were treated with vehicle or various concentrations (2.5, 5 and 10 μM) of hybrid A8 for 48 h and were then stained with FITC-annexin V and propidium iodide (PI). The percentages of apoptotic MCF-7 cells were determined by flow cytometry. A8-induced apoptosis in a dose-dependent manner. The percentages of total apoptotic cells (Q1-UR + Q1-LR) were 17.99% (2.5 μM), 35.98% (5 μM) and 48.65% (10 μM). […] In addition, obvious changes in cell morphology were also observed.
Cells apoptosis was assessed using Annexin V/PI staining assay. MCF-7 cells were seeded into 6-well plates for 24 h and then treated with compound A8 at various concentrations (0, 2.5, 5 and 10 μM) for 48 h. Then, cells were collected, washed with 500 μL annexin-binding buffer and stained with 5 μL annexin V-FITC and 5 μL PI for 15 min at 25 °C. After that, the samples were analyzed by flow cytometry (Beckman Coulter cytoFLEX, Brea, CA, USA).

T1 sequence (P33261 whole entry): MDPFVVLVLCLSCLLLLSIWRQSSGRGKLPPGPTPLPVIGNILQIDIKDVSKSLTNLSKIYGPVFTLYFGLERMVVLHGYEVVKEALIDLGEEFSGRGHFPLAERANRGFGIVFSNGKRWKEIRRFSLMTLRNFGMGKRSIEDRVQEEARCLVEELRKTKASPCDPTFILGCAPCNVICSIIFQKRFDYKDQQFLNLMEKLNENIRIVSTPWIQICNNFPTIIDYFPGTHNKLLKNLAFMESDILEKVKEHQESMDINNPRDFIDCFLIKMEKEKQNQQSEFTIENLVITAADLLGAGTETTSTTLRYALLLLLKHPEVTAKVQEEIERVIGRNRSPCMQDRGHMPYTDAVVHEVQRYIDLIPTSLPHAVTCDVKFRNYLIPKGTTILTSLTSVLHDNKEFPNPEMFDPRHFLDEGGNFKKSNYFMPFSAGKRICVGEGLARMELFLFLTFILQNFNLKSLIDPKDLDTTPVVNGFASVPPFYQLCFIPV

Compound: CC1CCC2C(C)C(OC(=O)CCC(=O)NCc3nnc(Nc4ccc(F)cc4F)o3)OC3OC4(C)CCC1C32OO4 (stereo not drawn) [A8]
- IC50 [1]: 5.27 ± 0.02 µM
- cell colony number (in words) (MCF-7 cells [2]; MCF-7, 0, 2.5, 5 and 10 μM): decreased in a dose-dependent manner
- antiproliferative effect in colony formation compared with controls (in words) (MCF-7 cells [2]; MCF-7, same administration concentration (10 μM)): better than that of 5-FU and ART
- Inhibition at 10 μM (%) CYP2C19 (CYP2C19): 12.3%
- GPX4 expression (in words) (GPX4): dose-dependent inhibition of GPX4 expression
- IC50 [3]: 7.15 ± 0.95 µM
- MDA level (in words) (MCF-7 cells [4]): increased at higher concentrations
- IC50 [5]: 9.71 ± 0.37 µM
- ROS fluorescence intensity (in words) (MCF-7 cells [6]): increased significantly with increasing drug concentration
- percentage of total apoptotic cells (Q1-UR + Q1-LR) (MCF-7 cells [7]; MCF-7, 2.5 μM): 17.99%
- percentage of total apoptotic cells (Q1-UR + Q1-LR) (MCF-7 cells [7]; MCF-7, 5 μM): 35.98%
- percentage of total apoptotic cells (Q1-UR + Q1-LR) (MCF-7 cells [7]; MCF-7, 10 μM): 48.65%
